Source: patent US11566007B2, “Ras inhibitors” (Revolution Medicines, Inc., priority 2019, dated 2023)
pEC50, pIC50: −log10 of the molar value. Blank lines part the entries; values can stand above or below the compound they belong to.

Legend:
[1] = biological target: KRAS G12S (Homo sapiens (Human), UniProt P01116+P62937, G12S); test: Ras-Raf (BRAF RBD) disruption / FRET / MOA assay, KRAS G12S; type: biochemical; settings: Ras-Raf disruption/FRET/MOA assay; class symbols; read-out: KRAS G12S FRET data IC50
Chain of KRAS G12S (P01116-2 other isoform, or with tags, fused parts or gaps G12S): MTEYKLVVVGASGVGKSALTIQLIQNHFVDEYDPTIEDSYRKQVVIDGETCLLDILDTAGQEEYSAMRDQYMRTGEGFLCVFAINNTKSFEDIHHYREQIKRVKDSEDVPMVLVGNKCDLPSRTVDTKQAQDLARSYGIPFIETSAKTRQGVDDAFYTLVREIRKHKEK
Chain of KRAS G12S (P62937 whole entry): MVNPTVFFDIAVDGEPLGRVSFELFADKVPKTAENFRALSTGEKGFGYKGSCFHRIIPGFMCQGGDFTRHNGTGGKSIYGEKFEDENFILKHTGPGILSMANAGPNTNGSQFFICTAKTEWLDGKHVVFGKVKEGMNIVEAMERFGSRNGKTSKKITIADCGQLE
In short: (§1)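 Ternary complex formation (Ras–compound–cyclophilin A) displacing BRAF RBD, monitored by TR-FRET. Three hours at 25° C with compound (top 30 μM final), then 1.5 h with the labelled antibodies. Lower ratio than DMSO indicates disruption; IC50 reported.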

[2] = biological target: K-Ras G13C (Homo sapiens (Human), UniProt P01116+P62937, G13C); test: Ras-Raf (BRAF RBD) disruption / FRET / MOA assay, KRAS G13C; type: biochemical; settings: KRAS G13C; Ras-Raf disruption/FRET/MOA assay; read-out: IC50* KRAS G13C FRET data
Chain of K-Ras G13C (P01116-2 other isoform, or with tags, fused parts or gaps G13C): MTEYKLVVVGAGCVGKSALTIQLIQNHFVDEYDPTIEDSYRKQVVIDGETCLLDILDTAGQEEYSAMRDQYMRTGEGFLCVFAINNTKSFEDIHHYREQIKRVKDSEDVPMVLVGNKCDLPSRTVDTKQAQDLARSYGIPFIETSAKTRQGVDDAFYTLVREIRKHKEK
Chain of K-Ras G13C (P62937 whole entry): as the sequence (P62937 whole entry) above
In short: as §1

[3] = biological target: KRAS G12V (Homo sapiens (Human), UniProt P01116+P62937, G12V); test: Ras-Raf (BRAF RBD) disruption / FRET / MOA assay, KRAS G12V; type: biochemical; settings: read-out: IC50* KRAS G12V FRET data
Chain of KRAS G12V (P01116-2 other isoform, or with tags, fused parts or gaps G12V): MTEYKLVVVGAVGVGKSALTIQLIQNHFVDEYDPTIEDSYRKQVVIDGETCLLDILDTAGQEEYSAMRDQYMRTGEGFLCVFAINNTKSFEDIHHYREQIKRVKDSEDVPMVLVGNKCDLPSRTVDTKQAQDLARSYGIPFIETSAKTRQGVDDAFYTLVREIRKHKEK
Chain of KRAS G12V (P62937 whole entry): as the sequence (P62937 whole entry) above
In short: as §1

[4] = biological target: KRAS G12D (Homo sapiens (Human), UniProt P01116+P62937, G12D); test: Ras-Raf (BRAF RBD) disruption / FRET / MOA assay, KRAS G12D; type: biochemical; settings: Ras-Raf disruption/FRET/MOA assay; class symbols; read-out: KRAS G12D FRET data IC50
Chain of KRAS G12D (P01116-2 other isoform, or with tags, fused parts or gaps G12D): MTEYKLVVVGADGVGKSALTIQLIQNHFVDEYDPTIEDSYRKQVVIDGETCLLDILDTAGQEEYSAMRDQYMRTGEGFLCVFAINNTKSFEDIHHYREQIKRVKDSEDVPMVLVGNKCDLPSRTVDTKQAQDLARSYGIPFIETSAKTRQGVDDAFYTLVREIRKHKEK
Chain of KRAS G12D (P62937 whole entry): as the sequence (P62937 whole entry) above
In short: as §1

[5] = test system: NCI-H358 cells (K-Ras G12C); test: Potency assay: pERK in NCI-H358 cells; type: cell-based, human; settings: Homo sapiens, NCI-H358; H358 KRAS G12C; read-out: pERK EC50
In short: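 4 h cpd, 37 °C; 10-pt 3-fold series, 10 mM DMSO top stock, duplicates. Readout pERK: AlphaLISA SureFire Ultra or In-Cell Western (IR-800CW secondary, DRAQ5 DNA stain). IC50, 4-PL fit vs log conc.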

[6] = biological target: NRAS G12C (Homo sapiens (Human), UniProt P01111+P62937, G12C); test: Ras-Raf (BRAF RBD) disruption / FRET / MOA assay, NRAS G12C; type: biochemical; settings: read-out: IC50* NRAS G12C FRET data
Chain of NRAS G12C (P01111 whole entry G12C): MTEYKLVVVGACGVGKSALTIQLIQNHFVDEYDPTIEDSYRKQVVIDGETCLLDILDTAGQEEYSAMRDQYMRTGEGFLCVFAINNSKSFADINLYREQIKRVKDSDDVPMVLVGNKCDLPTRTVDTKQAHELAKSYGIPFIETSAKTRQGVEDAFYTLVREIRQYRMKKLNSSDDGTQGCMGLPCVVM
Chain of NRAS G12C (P62937 whole entry): as the sequence (P62937 whole entry) above
In short: as §1

[7] = test system: NCI-H358 (K-Ras G12C); test: CellTiter-Glo cell viability assay, NCI-H358; type: cell-based, human; settings: Homo sapiens, NCI-H358, 120 h, NCI-H358, 5-day treatment; class symbols; read-out: Additional H358 Cell Viability assay data (K-Ras G12C, IC50)
In short: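 Viability measured by CellTiter-Glo luminescence on day 5 following direct addition of compound to plated cells. Values expressed as percent of mean DMSO signal; curves fitted with a four-parameter logistic model.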

[8] = biological target: KRAS G13D (Homo sapiens (Human), UniProt P01116+P62937, G13D); test: Ras-Raf (BRAF RBD) disruption / FRET / MOA assay, KRAS G13D; type: biochemical; settings: read-out: IC50* KRAS G13D FRET data
Chain of KRAS G13D (P01116-2 other isoform, or with tags, fused parts or gaps G13D): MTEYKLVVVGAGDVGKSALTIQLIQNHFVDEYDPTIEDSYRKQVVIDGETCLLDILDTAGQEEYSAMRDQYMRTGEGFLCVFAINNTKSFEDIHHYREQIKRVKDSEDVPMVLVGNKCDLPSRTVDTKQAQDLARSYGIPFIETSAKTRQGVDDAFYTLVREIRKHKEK
Chain of KRAS G13D (P62937 whole entry): as the sequence (P62937 whole entry) above
In short: as §1

[9] = biological target: K-Ras G12C (Homo sapiens (Human), UniProt P01116+P62937, G12C); test: Ras-Raf (BRAF RBD) disruption / FRET / MOA assay, KRAS G12C; type: biochemical; settings: KRAS G12C; Ras-Raf disruption/FRET/MOA assay; read-out: IC50* KRAS G12C FRET data
Chain of K-Ras G12C (P01116-2 other isoform, or with tags, fused parts or gaps G12C): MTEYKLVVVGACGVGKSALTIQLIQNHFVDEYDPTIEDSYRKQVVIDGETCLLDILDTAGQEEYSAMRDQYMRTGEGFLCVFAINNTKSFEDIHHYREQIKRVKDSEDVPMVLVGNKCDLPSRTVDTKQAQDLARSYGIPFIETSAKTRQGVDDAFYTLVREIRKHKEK
Chain of K-Ras G12C (P62937 whole entry): as the sequence (P62937 whole entry) above
In short: as §1

[10] = biological target: KRAS WT (Homo sapiens (Human), UniProt P01116+P62937); test: Ras-Raf (BRAF RBD) disruption / FRET / MOA assay, KRAS WT; type: biochemical; settings: read-out: IC50* KRAS WT FRET data
Chain of KRAS WT (P01116-2 other isoform, or with tags, fused parts or gaps): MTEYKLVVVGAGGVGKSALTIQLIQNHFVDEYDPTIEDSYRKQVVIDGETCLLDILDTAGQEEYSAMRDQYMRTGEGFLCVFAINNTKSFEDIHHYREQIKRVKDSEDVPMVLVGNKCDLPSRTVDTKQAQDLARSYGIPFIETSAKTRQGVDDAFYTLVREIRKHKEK
Chain of KRAS WT (P62937 whole entry): as the sequence (P62937 whole entry) above
In short: as §1

SMILES: C=CC(=O)N1CC(N(C)C(=O)N(C)[C@H](C(=O)N[C@H]2Cc3nc(cs3)-c3ccc4c(c3)c(c(-c3cccnc3[C@H](C)OC)n4CC)CC(C)(C)COC(=O)[C@@H]3CCCN(N3)C2=O)C(C)C)C1 (atropisomer, axis not shown) [Example A435]
pIC50 [1]: 6.00 to 7.00 | pIC50 [2]: 6.00 to 7.00 | pIC50 [3]: 6.00 to 7.00 | pIC50 [4]: 5.00 to 6.00 | pEC50 [5]: > 5.30 | pIC50 [6]: > 8.00 | pIC50 [7]: > 8.00 | pIC50 [8]: 5.00 to 6.00 | pIC50 [9]: 7.00 to 8.00 | pIC50 [10]: 6.00 to 7.00

SMILES: C=CC(=O)NC[C@@H]1CCN1C(=O)N(C)[C@H](C(=O)N[C@H]1Cc2nc(cs2)-c2ccc3c(c2)c(c(-c2cccnc2[C@H](C)OC)n3CC)CC(C)(C)COC(=O)[C@@H]2CCCN(N2)C1=O)C(C)C (atropisomer, axis not shown) [Example A422]
pIC50 [1]: 5.00 to 6.00 | pIC50 [2]: 6.00 to 7.00 | pIC50 [3]: 5.00 to 6.00 | pIC50 [4]: 5.00 to 6.00 | pEC50 [5]: > 5.30 | pIC50 [6]: 6.00 to 7.00 | pIC50 [7]: 7.00 to 8.00 | pIC50 [8]: 5.00 to 6.00 | pIC50 [9]: 6.00 to 7.00 | pIC50 [10]: 5.00 to 6.00

SMILES: CCn1c(-c2cccnc2COC)c2c3cc(ccc31)-c1cc(C)cc(c1)C[C@H](NC(=O)[C@H](C(C)C)N(C)C(=O)[C@H]1CCN(C(=O)C#CCN(C)C)C1)C(=O)N1CCC[C@H](N1)C(=O)OCC(C)(C)C2 [Example A156]
pIC50 [1]: < 5.00 | pIC50 [2]: 5.00 to 6.00 | pIC50 [3]: < 5.00 | pIC50 [4]: 5.00 to 6.00 | pEC50 [5]: > 5.30 | pIC50 [6]: 6.00 to 7.00 | pIC50 [7]: 7.00 to 8.00 | pIC50 [8]: 5.00 to 6.00 | pIC50 [9]: 7.00 to 8.00 | pIC50 [10]: < 5.00

SMILES: C=CC(=O)N1CC[C@H](C(=O)N(C)[C@H](C(=O)N[C@H]2Cc3cc(O)cc(c3)-c3ccc4c(c3)c(c(-c3cn(C)nc3[C@H](C)OC)n4CC)CC(C)(C)COC(=O)[C@@H]3CCCN(N3)C2=O)C(C)C)C1 [Example A154]
pIC50 [1]: 6.00 to 7.00 | pIC50 [2]: 5.00 to 6.00 | pIC50 [3]: 6.00 to 7.00 | pIC50 [4]: 5.00 to 6.00 | pEC50 [5]: > 5.30 | pIC50 [6]: 7.00 to 8.00 | pIC50 [7]: 7.00 to 8.00 | pIC50 [8]: 5.00 to 6.00 | pIC50 [9]: 7.00 to 8.00 | pIC50 [10]: 5.00 to 6.00

SMILES: C=CC(=O)N1CCCN(C(=O)N(C)[C@H](C(=O)N[C@H]2Cc3nc(cs3)-c3ccc4c(c3)c(c(-c3cccnc3[C@H](C)OC)n4CC)CC(C)(C)COC(=O)[C@@H]3CCCN(N3)C2=O)C(C)C)CC1 (atropisomer, axis not shown) [Example A436]
pIC50 [1]: 6.00 to 7.00 | pIC50 [2]: 6.00 to 7.00 | pIC50 [3]: 6.00 to 7.00 | pIC50 [4]: 6.00 to 7.00 | pEC50 [5]: > 5.30 | pIC50 [6]: 7.00 to 8.00 | pIC50 [7]: 7.00 to 8.00 | pIC50 [8]: 6.00 to 7.00 | pIC50 [9]: 7.00 to 8.00 | pIC50 [10]: 7.00 to 8.00

SMILES: CCn1c(-c2cccnc2[C@H](C)OC)c2c3cc(ccc31)-c1cc(O)cc(c1)C[C@H](NC(=O)[C@H](C(C)C)N(C)C(=O)[C@H]1CCN(C(=O)C#CCN3[C@@H](C)COC[C@@H]3C)C1)C(=O)N1CCC[C@H](N1)C(=O)OCC(C)(C)C2 (atropisomer, axis not shown) [Example A244]
pIC50 [1]: 6.00 to 7.00 | pIC50 [2]: 7.00 to 8.00 | pIC50 [3]: 6.00 to 7.00 | pIC50 [4]: 5.00 to 6.00 | pEC50 [5]: > 5.30 | pIC50 [6]: > 8.00 | pIC50 [7]: > 8.00 | pIC50 [8]: 6.00 to 7.00 | pIC50 [9]: > 8.00 | pIC50 [10]: 6.00 to 7.00

SMILES: CCn1c(-c2cccnc2COC)c2c3cc(ccc31)-c1cccc(c1)C[C@H](NC(=O)[C@H](C(C)C)N(C)C(=O)[C@H]1CCN(C(=O)C#CCN(C)C)C1)C(=O)N1CCC[C@H](N1)C(=O)OCC(C)(C)C2 (atropisomer, axis not shown) [Example A138]
pIC50 [1]: < 5.00 | pIC50 [2]: 6.00 to 7.00 | pIC50 [3]: 5.00 to 6.00 | pIC50 [4]: 5.00 to 6.00 | pEC50 [5]: > 5.30 | pIC50 [6]: 7.00 to 8.00 | pIC50 [7]: > 8.00 | pIC50 [8]: 5.00 to 6.00 | pIC50 [9]: 7.00 to 8.00 | pIC50 [10]: 5.00 to 6.00

SMILES: C=CC(=O)N1CC(OC(=O)N(C)[C@H](C(=O)N[C@H]2Cc3cccc(c3)-c3ccc4c(c3)c(c(-c3cccnc3[C@H](C)OC)n4CC)CC(C)(C)COC(=O)[C@@H]3CCCN(N3)C2=O)C(C)C)C1 (atropisomer, axis not shown) [Example A445]
pIC50 [1]: 5.00 to 6.00 | pIC50 [2]: 6.00 to 7.00 | pIC50 [3]: 5.00 to 6.00 | pIC50 [4]: < 5.00 | pEC50 [5]: > 5.30 | pIC50 [6]: 7.00 to 8.00 | pIC50 [7]: > 8.00 | pIC50 [8]: 5.00 to 6.00 | pIC50 [9]: 7.00 to 8.00 | pIC50 [10]: 5.00 to 6.00

The remaining lines, values ahead:

pIC50 [1]: 5.00 to 6.00 | pIC50 [2]: 5.00 to 6.00 | pIC50 [3]: 5.00 to 6.00 | pIC50 [4]: 5.00 to 6.00 | pEC50 [5]: > 5.30 | pIC50 [6]: 6.00 to 7.00 | pIC50 [7]: 7.00 to 8.00 | pIC50 [8]: 5.00 to 6.00 | pIC50 [9]: 6.00 to 7.00 | pIC50 [10]: 5.00 to 6.00
SMILES: CCn1c(-c2cccnc2[C@H](C)OC)c2c3cc(ccc31)-c1csc(n1)C[C@H](NC(=O)[C@H](C(C)C)N(C)C(=O)[C@H]1CCC(C(=O)/C=C/CN(C)C)C1)C(=O)N1CCC[C@H](N1)C(=O)OCC(C)(C)C2 (stereo partly drawn) [Example A282]

pIC50 [1]: 6.00 to 7.00 | pIC50 [2]: 6.00 to 7.00 | pIC50 [3]: 5.00 to 6.00 | pIC50 [4]: 5.00 to 6.00 | pEC50 [5]: > 5.30 | pIC50 [6]: 6.00 to 7.00 | pIC50 [7]: 7.00 to 8.00 | pIC50 [8]: 5.00 to 6.00 | pIC50 [9]: 6.00 to 7.00 | pIC50 [10]: 5.00 to 6.00
SMILES: C=CC(=O)N1CC[C@]2(CCN([C@H](C(=O)N[C@H]3Cc4cccc(c4)-c4ccc5c(c4)c(c(-c4cccnc4[C@H](C)OC)n5CC)CC(C)(C)COC(=O)[C@@H]4CCCN(N4)C3=O)C(C)C)C2=O)C1 (atropisomer, axis not shown) [Example A470]

pIC50 [1]: 6.00 to 7.00 | pIC50 [2]: 7.00 to 8.00 | pIC50 [3]: 6.00 to 7.00 | pIC50 [4]: 5.00 to 6.00 | pEC50 [5]: > 5.30 | pIC50 [6]: 6.00 to 7.00 | pIC50 [7]: 7.00 to 8.00 | pIC50 [8]: 6.00 to 7.00 | pIC50 [9]: 7.00 to 8.00 | pIC50 [10]: 7.00 to 8.00
SMILES: C/C=C/S(=O)(=O)N1CC[C@H](C(=O)N(C)[C@H](C(=O)N[C@H]2Cc3cc(O)cc(c3)-c3ccc4c(c3)c(c(-c3cccnc3[C@H](C)OC)n4CC)CC(C)(C)COC(=O)[C@@H]3CCCN(N3)C2=O)C(C)C)C1 (atropisomer, axis not shown) [Example A280]

pIC50 [1]: < 5.00 | pIC50 [2]: 5.00 to 6.00 | pIC50 [3]: 5.00 to 6.00 | pIC50 [4]: < 5.00 | pEC50 [5]: > 5.30 | pIC50 [6]: 5.00 to 6.00 | pIC50 [7]: < 6.00 | pIC50 [8]: < 5.00 | pIC50 [9]: 5.00 to 6.00 | pIC50 [10]: < 5.00
SMILES: CCn1c(-c2cccnc2[C@H](C)OC)c2c3cc(ccc31)-c1cccc(c1)C[C@H](NC(=O)[C@H](C(C)C)N(C)C(=O)[C@H]1CCN(S(=O)(=O)C=C(C)C)C1)C(=O)N1CCC[C@H](N1)C(=O)OCC(C)(C)C2 (atropisomer, axis not shown) [Example A307]
